Patent US20260224528A1, “PSILOCIN FORMULATIONS” (Eleusis Therapeutics US, Inc., priority 2023, published 2026)

Assay: Stability of DS in aqueous solution
Format: physicochemical
Conditions: pH range of 4 to 9; rapid degradation and discoloration
Experimental: The goal of this study was to develop an isotonic stable formulation with the psilocin benzoate Drug Substance (DS) concentration ranging from 0.5 to 3.0 mg/mL (mg free base psilocin) as a bulk sterile solution, having a pH in the range of 4 to 9 in a single use glass vial suitable for IV injection. […] This led to the development of a formulation of psilocin benzoate containing antioxidants, buffers, pH adjustment.

CN(C)CCc1c[nH]c2cccc(O)c12.O=C(O)c1ccccc1 [DS, psilocin benzoate]
Stability in aqueous solution: short stability in aqueous solution
